In a melting point compilation (Tetko et al.; mined from patent text by program, amines drawn as free bases though some values may be those of a salt):

| melting point | SMILES |
| --- | --- |
| 80 to 82 °C | CNC(=NC#N)NCCSCc1ccc(CN)o1 |
| 216 to 217 °C | Cc1nnc(-c2ccnc(N)c2)o1 |
| 146 to 148 °C | CC(C)c1cc(CO)cc(C(C)C)c1NC(=O)CN1CCN(CCSc2nc3cccc(C(F)(F)F)c3o2)CC1 |
| 110 to 112 °C | COC(=O)C=Cc1cn(C)nc1[N+](=O)[O-] |
| 178 to 180 °C | Cn1cc(-c2cccc(N3Cc4cc(C(C)(C)C)ccc4C3=O)c2CO)cc(Nc2cc(C3CC3)n[nH]2)c1=O |
| 116 to 118 °C | OCC1COC2(CC(c3ccccc3)SC(c3ccccc3)C2)O1 (stereo not drawn) |
| > 250 °C | CCCNCC1Cc2cc(F)cc(-c3c(Cl)cccc3Cl)c2O1 (stereo not drawn) |
| 266 to 268 °C | O=C(c1cc(-c2ccccc2)c(=O)n2c1-c1ccccc1C2)N1CCSCC1 |
| 278 to 280 °C | CC1(C)C(=O)Nc2cc3[nH]cnc3cc21 |
| 134 to 135 °C | CCCCCc1ccc2cc(Nc3ccc(O)cc3)ccc2c1 |
| 83 to 85 °C | COCCOc1cc(Oc2ccc(C(F)(F)F)cn2)ccc1CCCOc1cc(CCC(=O)O)n(-c2ccccc2)n1 |
| 105 to 108 °C | O=C(NCc1cccnc1)c1cc2ccnc(N(Cc3ccccc3)Cc3ccccc3)c2[nH]1 |
| 96 to 98 °C | Cc1ccc(S(=O)(=O)NC(=O)C(C)(NC(=O)NN(C)C)C(C)C)cc1 (stereo not drawn) |
| 166 to 168 °C | CN1CCN(c2ccc(C3CCC4(CCC4c4ccccc4)C(=O)N3c3ccccc3)cc2)CC1 (stereo not drawn) |
| > 250 °C | NC(=O)C=Cc1ccc(NC(=O)C=C2CC(C(=O)OCc3ccccc3)Nc3cc(Cl)cc(Cl)c32)cc1 (racemic) |
| 226 °C | Cn1cc(-c2cc(-c3ccncc3)ccn2)n(-c2ccc(C(C)(C)C#N)cc2)c1=O |
| 173 to 174 °C | Cn1c(COc2ccc(CC3SC(=O)NC3=O)cc2)nc2ccc(Oc3ccc(NC(=S)NC4CCCCC4)cc3)cc21 (stereo not drawn) |
| 213 °C | O=C(O)c1cc(NC(=O)C(F)(F)F)c(C(=O)c2ccccc2)c(OCc2ccccc2)c1 |
| 180 to 182 °C | CC(C)(C)OC(=O)NCc1cccc2c1C(=O)N(C1CCC(=O)NC1=O)C2=O (stereo not drawn) |
| 172 °C | CCCOC(C)c1ccc(-c2ccc(C(=O)O)cc2)cc1 (single isomer, unassigned; (+)) |
| 203 to 204 °C | CC(C)n1c(C=O)c(-c2ccc(F)cc2)c(-c2ccc(F)cc2)c1C(=O)NCc1ccc(S(C)(=O)=O)cc1 |
| 202 to 205 °C | CCCc1c(OCc2ccccc2)ccc2c1OC(CCC(=O)O)(CCC(=O)O)CC2=O |
| 122 to 124 °C | COc1ccc2nc(-c3ccccc3)cc(CCNC(=O)C(F)(F)F)c2c1 |

| melting point | SMILES |
| --- | --- |
| 114 to 116 °C | OCC(O)Cc1nccn1CCCCc1ccc(OCc2coc(/C=C/c3ccc(F)cc3)n2)cc1 (stereo not drawn) |
| 214 to 216 °C | CC(=O)Oc1ccccc1[C@@H]1SC(C)(C)[C@H](C(=O)O)N1C(C)=O |
| 158 °C | COC1CN(CCCNc2ncccn2)CCC1NC(=O)C1=CC(Cl)(OC)C(N)C=C1 (stereo not drawn) |
| 148 to 150 °C | N#Cc1ccc(Cn2cncn2)cc1-c1ccc(Cl)c(OS(N)(=O)=O)c1 |
| 163 to 164 °C | CCOC(=O)Cc1c(Br)cnc2c([N+](=O)[O-])cccc12 |
| 182 °C | COc1ccc(C(=O)Nc2ccc3sc(C)nc3c2Cl)cc1 |
| > 300 °C | CCOC(=O)c1nc(O)n2c1c(=O)n(C)c1cc(C(F)(F)F)ccc12 |
| 235 to 237 °C | O=c1c2c([nH]n1-c1ccc(Cl)cc1)-c1ccccc1SC2 |
| 155 to 156 °C | COc1ccc(-c2c(Cl)c(CN3C(=O)COC3=O)nc3sc4c(c23)CCC(C(N)=O)C4)cc1 (stereo not drawn) |
| 126 to 127 °C | CC(=O)N1CCC(C)(C)C2=C1CCc1cc(Cl)ccc12 |
| 114 to 115 °C | CC(=O)N[C@@H]1[C@@H](CCO)CC(C(=O)O)=C[C@H]1OC(C)C |
| 245 to 246 °C | COc1ccc(CNC(=O)c2cc3c(=O)n(Cc4ccc(C(=O)O)cc4)cnc3cn2)cc1 |
| 227 to 229 °C | O=c1[nH]c(=O)n2c(c1Cc1ccccc1)SCCC2 |
| 90 to 95 °C | O=C(O)CCC(O)c1ccc(-c2ccccc2Cl)cc1 (stereo not drawn) |
| 158 to 160 °C | CC(C)(C)OC(=O)N1CCC(Oc2c(F)cc3c(=O)c(C(=O)O)cn(C4CC4)c3c2F)C1 (stereo not drawn) |
| 135 to 136 °C | CC(C)C(=O)CCC(C)C1CCC2C3CC=C4CC(O)CCC4(C)C3CCC12C (stereo not drawn) |
| 148 to 149 °C | CC1CC(C)CN(C(=O)C2Cc3ccccc3N2C(=O)OC(C)(C)C)C1 (stereo not drawn) |
| 203 to 206 °C | CNc1cccc([N+](=O)[O-])c1C#N |
| 160 °C | OC1CSC(Oc2cccc(-c3cccnc3F)c2)C(O)C1O (stereo not drawn) |
| 90 to 92 °C | N#Cc1ncccc1Oc1ccccc1Cl |
| 128 to 129 °C | Nc1cc(Cl)nn1-c1c(Cl)cc(C(F)(F)F)cc1Cl |
| 139 to 140 °C | C=C(c1ccc(OC)cc1)c1sc(C)nc1C |
| 164 to 168 °C | O=C1c2ccc(Cl)cc2C(O)N1CCBr (stereo not drawn) |

| melting point | SMILES |
| --- | --- |
| 211 °C | CC(C)(C)OC(=O)N1CCC(OCc2ccccc2)C1CC(=O)Cn1cnc2ccc(F)c(F)c2c1=O (stereo not drawn) |
| 84 to 87 °C | N#Cc1ccc(NN)cc1 |
| 252 to 255 °C | CCCn1nc2c(N)nc3ncccc3c2c1CC(C)(C)O |
| 103 to 105 °C | CCOC(=O)OCCn1nc(-c2cc(C(C)(C)C)c(O)c(C(C)(C)C)c2)c2cccnc21 |
| 143 to 144 °C | CCOC(=O)N1CCC(NC(=O)c2ccc(Cl)cc2Cl)C12CCCCC2 (stereo not drawn) |
| 112 °C | CC(C)Cc1cc(C(=O)NCCc2ccncc2)ccc1OCc1ccc(F)cc1 |
| 126 to 128 °C | OC1C(COC2CC2)OC(n2cnc3c(NC4CCCC4)ncnc32)C1O (stereo not drawn) |
| 196 to 198 °C | CCCNC(=O)c1c(OCc2ccc(-c3ccccc3-c3nnn[nH]3)cc2)cc(C)nc1C |
| 117 to 118 °C | COCOc1cc(OC)ccc1C(=O)c1cccc(OCc2nc(-c3ccccc3)oc2C)c1 |
| 305 to 307 °C | Nc1c(-c2cc(Cl)ccc2O)c2cc(Cl)c(Cl)cc2[nH]c1=O |
| 256 °C | COc1cc(C(=O)c2nc(NC(C)=O)c3ccccn23)ccc1[N+](=O)[O-] |
| 182 to 184 °C | COc1ccc(S(=O)(=O)NCc2ccco2)c2cc(C(C)=O)oc12 |
| 175 to 178 °C | CN1C(=O)Cc2c(sc3ccccc23)S1(=O)=O |
| 127 to 130 °C | CC1=Cc2cc(-c3nnnn3C)ccc2OC1(C)C |
| 238 to 240 °C | COc1ccc(CNc2nc(SC)ncc2C(=O)Nc2cncnc2)cc1Cl |
| 178 to 179 °C | COc1cccc(-c2ccc3c(c2)C(C)(C(F)(F)F)OC(=O)N3)c1 (stereo not drawn) |
| 144 to 158 °C | CN1CCC(=O)C(C2c3ccccc3C=Cc3ccccc32)C1 (stereo not drawn) |
| 120 °C | COc1c(/C=C/c2ccc(C#N)cc2)c(C)cc2c1C(C)(C)CCC2(C)C |
| 92 to 93 °C | O=P(Oc1ccc(Oc2ccccc2)cc1)(Oc1ccc(Oc2ccccc2)cc1)c1ccccc1 |
| 110 to 113 °C | CCOc1ccccc1-c1cccc(-n2cnc(-c3nc(C)no3)c2)c1 |
| 141 to 142 °C | CCc1cc(/C=C/[N+](=O)[O-])ccc1N=C1SCC2(CCCC2)N1C1CCCC1 |

| SMILES | melting point |
| --- | --- |
| O=C(Nc1ccccc1)ONC1=Nc2ccc(Cl)cc2C(c2ccccc2F)=NC1 | 126 to 128 °C |
